The values that follow come from patent US20090246265A1, “ABUSE DETERRENT TRANSDERMAL FORMULATIONS OF OPIATE AGONISTS AND AGONIST-ANTAGONISTS” (AllTranz Inc., priority 2008, published 2009).

A short description of data set [1]: In vitro diffusion (permeation and accumulation) studies through human skin, PermeGear flow through diffusion apparatus.
Data set [2] in a line: Solubility in the pressure sensitive adhesive matrix. Type of data set: physicochemical. As to conditions: Durotak Elite 87-900A PSA. Here is the method: Thus, the suspension was mixed and poured to 20 mil thickness.
Thus, the suspension and 3 solutions of NTX prodrugs were mixed and poured to 20 mil thickness.
Three patch formulations for testing were prepared. The patch formulations included naltrexone-HCl, naltrexone-HCl coated with cellulose acetate phthalate and an isobutyryl ester prodrug of naltrexone. The naltrexone-HCl and cellulose acetate phthalate complex was prepared using the methods described in Example 2. The patch formulations also included buprenorphine in a concentration of 2% w/w or 20 mg of buprenorphine per […] of pressure sensitive adhesive. […] The PSA admixture was poured onto Scotch PAK 1022 Release Liner 3.0 mil 3M™, spread to an even 20 mil thickness with an 8 path wet film applicator by Gardco®. The matrices were allowed to dry at 40° C. and finally the Cotran 9715 Film 3M™ as a backing membrane was applied.

The nature of data set [3]: Release of buprenorphine and naltrexone from patch placed in methanol or ethanol. Type of data set: physicochemical. As to conditions: patch with 2% buprenorphine. From the text:
Methanol and ethanol are two media that could potentially be used to dissolve a patch for the purpose of extracting the opiate in the patch by a potential abuse. Thus, an antagonist complex such as NTX-CAP should release in a rapid manner in order to be able to block the opiates effect if injected or ingested. FIG. 6 is a representative profile of the release characteristics of naltrexone coated with cellulose acetate phthalate in methanol and ethanol.
This ratio corresponds to the amount of naltrexone necessary to cause a narcotic blockade at the opiate receptors.

The mark [4] stands for this setting: Example 7, NTX•HCl and buprenorphine base bi-layer patch, 24 h.
Where [5] appears, read: Example 8, NTX•HCl and buprenorphine base bi-layer patch, 24 h.
Setting [6] is: Example 7, NTX-CAP and buprenorphine base bi-layer patch.
The mark [7] stands for this setting: Example 7, NTX•HCl and buprenorphine base bi-layer patch.
Setting [8] is: Example 7, NTX•HCl and buprenorphine base bi-layer patch, after 24 h.
The mark [9] stands for this setting: Example 8, NTX-CAP and buprenorphine base bi-layer patch.
Where [10] appears, read: Example 8, NTX•HCl and buprenorphine base bi-layer patch, after 24 h.
Setting [11] is: Example 8, NTX•HCl and buprenorphine bi-layer patch, n=1.

Entries after “also recorded” stand apart in the source; their conditions may differ. Where a name gives a salt, the structure may show the parent alone.

As to `O=C1CC[C@@]2(O)[C@H]3Cc4ccc(O)c5c4[C@@]2(CCN3CC2CC2)[C@H]1O5` [naltrexone], the Cumulative in data set [1] (Example 6, bi-layer patch with NTX only, 24 hours) is 7.3 nmol; in data set [1] (setting [4]), 0.3 nmol; in data set [1] (setting [5]) it was 2.3 nmol. In data set [2], the “solubility in pressure sensitive adhesive (matrix)” value (from here on “solubility”) is listed as “not soluble”.
As to `CO[C@@]12CC[C@@]3(C[C@@H]1[C@](C)(O)C(C)(C)C)[C@H]1Cc4ccc(O)c5c4[C@@]3(CCN1CC1CC1)[C@H]2O5` [BUP from bi-layer, buprenorphine], the Flux in data set [1] (setting [6]) is 0.39 ± 0.05 nmol/cm^2/h; in data set [1] (setting [7]) it was 0.23 ± 0.06 nmol/cm^2/h; in data set [1] (setting [9]) it was 1.05 ± 0.65 nmol/cm^2/h; in data set [1] (setting [11]), 0.6 NA* nmol/cm^2/h. The Lag time came to 10.6 ± 0.28 h in data set [1] (setting [6]), 10.0 ± 2.6 h in data set [1] (setting [7]), 8.2 ± 0.6 h in data set [1] (setting [9]) and 9.5 h in data set [1] (setting [11]). Besides, the Cumulative in data set [1] (Example 7, NTX-CAP and buprenorphine base bi-layer patch, 24 h) is 9.3 ± 1.2 nmol; in data set [1] (setting [4]), 5.5 ± 0.7 nmol; in data set [1] (setting [9]), 24.6 ± 10.8 nmol; in data set [1] (setting [5]), 18.5 nmol. Moreover, the Drug in skin is 0.43 ± 0.01 µmol/g in data set [1] (Example 7, NTX-CAP and buprenorphine base bi-layer patch, after 24 h); 0.35 ± 0.01 µmol/g in data set [1] (setting [8]); 0.50 ± 0.04 µmol/g in data set [1] (setting [9]); 0.37 µmol/g in data set [1] (setting [10]). The “buprenorphine flux, times higher than naltrexone” value in data set [1] (setting [7]) stood at 11.2 times. For the same compound, the total permeation in data set [1] (setting [9]) amounted to 11.65 µg. Besides, the “solubility” value in data set [2] was “freely soluble”.
Turning to `O=C1CC[C@@]2(O)[C@H]3Cc4ccc(O)c5c4[C@@]2(CCN3CC2CC2)[C@H]1O5` [NTX•HCl, naltrexone hydrochloride], the Flux in data set [1] (setting [7]) came out at 0.02 ± 0.03 nmol/cm^2/h; in data set [1] (setting [11]) it was 0.0 NA* nmol/cm^2/h. The Lag time in data set [1] (setting [7]) was 14.6 NA* h. The Cumulative in data set [1] (Example 7, NTX•HCl and buprenorphine base bi-layer patch, 24 h, listed as NTX•HCl from bi-layer, hydrochloride) is recorded as 0.3 ± 0.5 nmol; in data set [1] (Example 8, NTX•HCl and buprenorphine base bi-layer patch, 24 h, listed as NTX•HCl from bi-layer, hydrochloride) it was 2.3 nmol. In addition, the Drug in skin in data set [1] (setting [8]) turned out to be 0.29 ± 0.03 µmol/g; in data set [1] (setting [10]), 0.30 µmol/g. The “Release ratio of BUP:NTX” value in data set [3] (ethanol, 0 min) was found to be 9.9; in data set [3] (ethanol, 10 min) it was 7.2; in data set [3] (ethanol, 30 min), 4.6; in data set [3] (ethanol, 60 min), 4.1; in data set [3] (methanol, 0 min) it was 7.8; in data set [3] (methanol, 10 min) it was 6.5. The “Release ratio of BUP:NTX” value is 6.5 in data set [3] (methanol, 30 min) and 6.1 in data set [3] (methanol, 60 min). Besides, the “solubility” value is on record as “Neither NTX.HCl nor CAP-NTX were soluble; also recorded: not soluble” in data set [2] (hydrochloride) and “suspensions” in data set [2] (listed as naltrexone-HCl, hydrochloride).
